Assay results as given in patent publication US20140378408A1, “NUCLEOSIDE 5'-PHOSPHOROTHIOATE ANALOGUES AND USES THEREOF” (BAR-ILAN UNIVERSITY, an Israeli University, priority 2012, published 2014).

System: chondrocytes
Experiment: Pyrophosphate formed by ATP hydrolysis in the presence of chondrocytes (fluorogenic sensor)
Assay type: cell-based, human
Settings: 8 h, ATP alone 0.46 μM, without chondrocytes 0.26 μM

With `Nc1ncnc2c1ncn2[C@@H]1O[C@H](COP(O)(=S)OP(=O)(O)C(Cl)(Cl)P(=O)(O)O)[C@@H](O)[C@H]1O` (single isomer, unassigned; isomer a) [APPCCl2P-α-S (isomer A), adenosine 5′-[Pα-thio]-β,γ-(dichloromethylene)triphosphate] the “PPi formed on co-application with ATP” value was 0.029 µM.
